The source of these data is US20240245673A1, “Papain-like protease (PLpro) inhibitors” (Pfizer Inc., priority 2022, published 2024).

The test concerns the target SARS-CoV-2 Papain like protease (PLpro) (Severe acute respiratory syndrome coronavirus 2 (2019-nCoV) (SARS-CoV-2), UniProt P0DTD1). Kind of test: Papain Like Protease (PLpro) biochemical assay with profluorogenic substrate Z-RLRGG-AMC. Conditions: SARS-CoV-2 PLpro 6.25 nM, 25 μM Z-RLRGG-AMC substrate, 60 minute reaction.

Read-outs that look alike come from different tables or passages of the source.

With `Cc1ccccc1C(=O)NC(C)c1cc(C2CCOCC2)nc2ccccc12` (stereo in doubt) [Example 155, 2-methyl-N-{(1R)-1-[2-(oxan-4-yl)quinolin-4-yl]ethyl}benzamide], the IC50 (in general, the concentration that gives 50% inhibition) (read-out: IC50) was found to be 0.581 µM.

Regarding `Cc1ccccc1C(=O)NC(C)c1cc(CN2CCCC2=O)nc2ccccc12` (stereo in doubt) [Example 156, 2-methyl-N-[(1R)-1-{2-[(2-oxopyrrolidin-1-yl)-methyl]quinolin-4-yl}ethyl]benzamide], the IC50 (read-out: IC50) is 7.22 µM.

Turning to `Cc1ccccc1C(=O)NC(C)c1cc(CCn2cccn2)nc2ccccc12` (stereo in doubt) [Example 157, 2-methyl-N-[(1R)-1-{2-[2-(1H-pyrazol-1-yl)ethyl]-quinolin-4-yl}ethyl]benzamide], the IC50 (read-out: IC50) is 2.68 µM. The same measure, in the same setting: in the case of `Cc1ccccc1C(=O)NC(C)c1cc(CN)nc2ccccc12` (stereo in doubt) [Example 158, N-{(1R)-1-[2-(aminomethyl)quinolin-4-yl]-ethyl}-2-methylbenzamide] it was 5.48 µM; in that of `Cc1ccccc1C(=O)NC(C)c1cc(CC#N)nc2ccccc12` (stereo in doubt) [Example 159, N-{(1R)-1-[2-(cyanomethyl)quinolin-4-yl]-ethyl}-2-methylbenzamide], 1.97 µM. For `Cc1ccc(C(N)=O)cc1C(=O)NC(C)c1cc(-n2ccnn2)cc2ccccc12` (stereo not drawn) [Example 1, N^1-(1-(3-(1H-1,2,3-triazol-1-yl)naphthalen-1-yl)ethyl)-6-methylisophthalamide], where the note is “read-out: IC50”, the 50% inhibitory concentration (IC50) stood at 1.79 µM. For the compound `Cc1ccc(C(N)=O)cc1C(=O)NC(C)c1cc(-n2nccn2)cc2ccccc12` (stereo not drawn) [Example 2, N^1-(1-(3-(2H-1,2,3-triazol-2-yl)naphthalen-1-yl)ethyl)-6-methylisophthalamide], the IC50 (read-out: IC50) turned out to be 1.37 µM. With `Cc1ccc(CN)cc1C(=O)NC(C)c1cc(-c2cnn(C)c2)cc2ccccc12` (stereo not drawn) [Example 3, 5-(aminomethyl)-2-methyl-N-(1-(3-(1-methyl-1H-pyrazol-4-yl)naphthalen-1-yl)ethyl)benzamide], the IC50 (read-out: IC50) came out at 0.048 µM. For the compound `Cc1ccc(NC(=O)[C@H]2CCCCN2)cc1C(=O)NC(C)c1cc(-c2cnn(C)c2)cc2ccccc12` (stereo partly drawn) [Example 4, (2R)—N-(4-methyl-3-((1-(3-(1-methyl-1H-pyrazol-4-yl)naphthalen-1-yl)ethyl)carbamoyl)phenyl)piperidine-2-carboxamide], the IC50 (read-out: IC50) was 0.023 µM. In the case of `Cc1cc(CN)ccc1C(=O)NC(C)c1cc(-c2cnn(C)c2)cc2ccccc12` (stereo not drawn) [Example 5, 4-(aminomethyl)-2-methyl-N-(1-(3-(1-methyl-1H-pyrazol-4-yl)naphthalen-1-yl)ethyl)benzamide], the 50% inhibitory concentration (IC50) (read-out: IC50) amounted to 0.087 µM. For `Cc1cc(CNCc2ncc[nH]2)ccc1C(=O)NC(C)c1cc(-c2cnn(C)c2)cc2ccccc12` (stereo not drawn) [Example 6, 4-((((1H-imidazol-2-yl)methyl)amino)methyl)-2-methyl-N-(1-(3-(1-methyl-1H-pyrazol-4-yl)naphthalen-1-yl)ethyl)benzamide], the IC50 (read-out: IC50) was 0.019 µM.

Consider `Cc1cc(CNCc2cscn2)ccc1C(=O)NC(C)c1cc(-c2cnn(C)c2)cc2ccccc12` (stereo not drawn) [Example 7, 2-methyl-N-(1-(3-(1-methyl-1H-pyrazol-4-yl)naphthalen-1-yl)ethyl)-4-(((thiazol-4-ylmethyl)amino)methyl)benzamide], for which the IC50 (read-out: IC50) came out at 0.013 µM. In the case of `CNCc1ccc(C)c(C(=O)NC(C)c2cc(-c3cnn(C)c3)cc3ccccc23)c1` (stereo not drawn) [Example 10, 2-methyl-N-(1-(3-(1-methyl-1H-pyrazol-4-yl)naphthalen-1-yl)ethyl)-5-((methylamino)methyl)benzamide], the IC50 (read-out: IC50) is 0.033 µM. In the case of `Cc1ccc(CN)cc1C(=O)N[C@H](C)c1cc(-c2cnn(C)c2)nc2ccccc12` [Example 11, (R)-5-(aminomethyl)-2-methyl-N-(1-(2-(1-methyl-1H-pyrazol-4-yl)quinolin-4-yl)ethyl)benzamide], under “read-out: IC50”, the IC50 turned out to be 0.027 µM.

On to `Cc1ccccc1C(=O)N[C@H](C)c1cc(-c2ccn(C)n2)nc2ccccc12` [Example 12, (R)-2-methyl-N-(1-(2-(1-methyl-1H-pyrazol-3-yl)quinolin-4-yl)ethyl)benzamide], for which the IC50 (read-out: IC50) was determined as 0.532 µM. For `CNCc1ccc(C)c(C(=O)N[C@H](C)c2cc(-c3cnn(C)c3)nc3ccccc23)c1` [Example 13, (R)-2-methyl-N-(1-(2-(1-methyl-1H-pyrazol-4-yl)quinolin-4-yl)ethyl)-5-((methylamino)methyl)benzamide], under “read-out: IC50”, the concentration for half-maximal inhibition (IC50) is 0.024 µM. On to `Cc1ccc(NC(=O)[C@H]2CCCCN2)cc1C(=O)N[C@H](C)c1cc(-c2cnn(C)c2)nc2ccccc12` [Example 14, (R)-N-(4-methyl-3-(((R)-1-(2-(1-methyl-1H-pyrazol-4-yl)quinolin-4-yl)ethyl)carbamoyl)phenyl)piperidine-2-carboxamide], for which the half-maximal inhibitory concentration (IC50) (read-out: IC50) was 0.019 µM. Regarding `Cc1ccc(N(C)C(=O)[C@H]2CCCCN2)cc1C(=O)N[C@H](C)c1cc(-c2cnn(C)c2)nc2ccccc12` [Example 15, (R)—N-methyl-N-(4-methyl-3-(((R)-1-(2-(1-methyl-1H-pyrazol-4-yl)quinolin-4-yl)ethyl)carbamoyl)phenyl)piperidine-2-carboxamide], the IC50 (read-out: IC50) came out at 0.495 µM. As to `Cc1ccc(CN)cc1C(=O)N[C@H](C)c1cc(-n2cnnc2)nc2ccccc12` [Example 16, (R)—N-(1-(2-(4H-1,2,4-triazol-4-yl)quinolin-4-yl)ethyl)-5-(aminomethyl)-2-methylbenzamide], the 50% inhibitory concentration (IC50) (read-out: IC50) came out at 0.149 µM. In the case of `CNCc1ccc(C)c(C(=O)N[C@H](C)c2cc(-c3cn[nH]c3)nc3ccccc23)c1` [Example 17, (R)—N-(1-(2-(1H-pyrazol-4-yl)quinolin-4-yl)ethyl)-2-methyl-5-((methylamino)methyl)benzamide], the IC50 (read-out: IC50) amounted to 0.022 µM. For the compound `Cc1ccc(CN)cc1C(=O)N[C@H](C)c1cc(-c2cn[nH]c2)nc2ccccc12` [Example 18, (R)-N-(1-(2-(1H-pyrazol-4-yl)quinolin-4-yl)ethyl)-5-(aminomethyl)-2-methylbenzamide], the IC50 (read-out: IC50) turned out to be 0.027 µM. `COC(=O)c1c[nH]c(-c2cc([C@@H](C)NC(=O)c3cc(CN)ccc3C)c3ccccc3n2)c1` [Example 19, methyl(R)-5-(4-(1-(5-(aminomethyl)-2-methylbenzamido)ethyl)quinolin-2-yl)-1H-pyrrole-3-carboxylate]: the IC50 (read-out: IC50) was 0.015 µM. As to `Cc1ccc(CN)cc1C(=O)N[C@H](C)c1cc(-c2cc(C(=O)O)c[nH]2)nc2ccccc12` [Example 20, (R)-5-(4-(1-(5-(aminomethyl)-2-methylbenzamido)ethyl)quinolin-2-yl)-1H-pyrrole-3-carboxylic acid], the IC50 (read-out: IC50) was 0.041 µM.

In the case of `Cc1ccc(CN)cc1C(=O)N[C@H](C)c1cc(-c2cc(C(N)=O)c[nH]2)nc2ccccc12` [Example 21, (R)-5-(4-(1-(5-(aminomethyl)-2-methylbenzamido)ethyl)quinolin-2-yl)-1H-pyrrole-3-carboxamide], the IC50 (read-out: IC50) was found to be 0.016 µM.

For the compound `CNC(=O)c1c[nH]c(-c2cc([C@@H](C)NC(=O)c3cc(CN)ccc3C)c3ccccc3n2)c1` [Example 22, (R)-5-(4-(1-(5-(aminomethyl)-2-methylbenzamido)ethyl)quinolin-2-yl)-N-methyl-1H-pyrrole-3-carboxamide], the IC50 (read-out: IC50) is 0.017 µM. On to `Cc1ccc(CN)cc1C(=O)N[C@H](C)c1cc(-n2ccnn2)nc2ccccc12` [Example 23, (R)—N-(1-(2-(1H-1,2,3-triazol-1-yl)quinolin-4-yl)ethyl)-5-(aminomethyl)-2-methylbenzamide], for which the half-inhibitory concentration (IC50) (read-out: IC50) is 0.293 µM. For `Cc1ccc(CN)cc1C(=O)N[C@H](C)c1cc(-n2cncn2)nc2ccccc12` [Example 24, (R)-N-(1-(2-(1H-1,2,4-triazol-1-yl)quinolin-4-yl)ethyl)-5-(aminomethyl)-2-methylbenzamide], the IC50 (read-out: IC50) worked out at 0.25 µM. On the same count and under the same terms, in the case of `Cc1ccc(CN)cc1C(=O)NC(C)c1cc(-n2cc(C(F)(F)F)nn2)nc2ccccc12` (stereo not drawn) [Example 31, 5-(aminomethyl)-2-methyl-N-(1-(2-(4-(trifluoromethyl)-1H-1,2,3-triazol-1-yl)quinolin-4-yl)ethyl)benzamide] it was 0.674 µM. On the same count and under the same terms, in the case of `Cc1ccc(CN)cc1C(=O)NC(C)c1cc(-n2ncc(C(F)(F)F)n2)nc2ccccc12` (stereo not drawn) [Example 32, 5-(aminomethyl)-2-methyl-N-(1-(2-(4-(trifluoromethyl)-2H-1,2,3-triazol-2-yl)quinolin-4-yl)ethyl)benzamide] it was 0.676 µM. On the same count and under the same terms, in the case of `Cc1ccc(CN)cc1C(=O)NC(C)c1cc(-n2cnnc2C(N)=O)nc2ccccc12` (stereo not drawn) [Example 33, 4-(4-(1-(5-(aminomethyl)-2-methylbenzamido)ethyl)quinolin-2-yl)-4H-1,2,4-triazole-3-carboxamide] it was 1.36 µM.

In the case of `Cc1ccc(CN)cc1C(=O)NC(C)c1cc(N2CCCC2=O)nc2ccccc12` (stereo not drawn) [Example 34, 5-(aminomethyl)-2-methyl-N-(1-(2-(2-oxopyrrolidin-1-yl)quinolin-4-yl)ethyl)benzamide], where the note is “read-out: IC50”, the IC50 turned out to be 1.45 µM. As for `Cc1ccc(CN)cc1C(=O)NC(C)c1cc(-n2ccc(C#N)n2)nc2ccccc12` (stereo not drawn) [Example 35, 5-(aminomethyl)-N-(1-(2-(3-cyano-1H-pyrazol-1-yl)quinolin-4-yl)ethyl)-2-methylbenzamide], the concentration for half-maximal inhibition (IC50) (read-out: IC50) turned out to be 1.48 µM.

Compound `Cc1ccc(CN)cc1C(=O)NC(C)c1cc(-n2ccnc2)nc2ccccc12` (stereo not drawn) [Example 36, N-(1-(2-(1H-imidazol-1-yl)quinolin-4-yl)ethyl)-5-(aminomethyl)-2-methylbenzamide] returned an IC50 (IC50 (μM)) of 0.21 µM. Regarding `Cc1ccccc1C(=O)N[C@H](C)c1cc(NC2COC2)nc2ccccc12` [Example 37, (R)-2-methyl-N-(1-(2-(oxetan-3-ylamino)quinolin-4-yl)ethyl)benzamide], where the note is “read-out: IC50”, the IC50 stood at 10 µM. As to `Cc1ccccc1C(=O)N[C@H](C)c1cc(Nc2ccn(C)n2)nc2ccccc12` [Example 38, (R)-2-methyl-N-(1-(2-((1-methyl-1H-pyrazol-3-yl)amino)quinolin-4-yl)ethyl)benzamide], the IC50 (read-out: IC50) was determined as 1.63 µM.

`Cc1ccccc1C(=O)N[C@H](C)c1cc(N)nc2ccccc12` [Example 39, (R)-N-(1-(2-aminoquinolin-4-yl)ethyl)-2-methylbenzamide]: under “read-out: IC50”, the 50% inhibitory concentration (IC50) is 0.861 µM.
